Results: patent US7517874B2 (priority 2007, dated 2009)

Columns and labels:
[1] = biological target: human CB1 receptor (hCB1) (Homo sapiens, UniProt P21554); assay: cell-based; format: cell-based; settings: for +/− HCB1: agonist or inverse agonist at hCB1
Summary of the method: (§1)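 First, cells in IBMX-containing HEPES-buffered HBSS are raised to elevated cAMP with 2-8 μM NKH-477 for 30 min. Data are normalised to the forskolin and forskolin + 1 μM CP55,940 controls.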

rat CB2 receptor (rCB2) = biological target: T1, rat CB2 receptor (rCB2) (Rattus norvegicus, UniProt Q9QZN9); assay: cell-based; format: cell-based; settings: for +/− RCB2: agonist or inverse agonist at rCB2
T1 sequence (Q9QZN9 1-360): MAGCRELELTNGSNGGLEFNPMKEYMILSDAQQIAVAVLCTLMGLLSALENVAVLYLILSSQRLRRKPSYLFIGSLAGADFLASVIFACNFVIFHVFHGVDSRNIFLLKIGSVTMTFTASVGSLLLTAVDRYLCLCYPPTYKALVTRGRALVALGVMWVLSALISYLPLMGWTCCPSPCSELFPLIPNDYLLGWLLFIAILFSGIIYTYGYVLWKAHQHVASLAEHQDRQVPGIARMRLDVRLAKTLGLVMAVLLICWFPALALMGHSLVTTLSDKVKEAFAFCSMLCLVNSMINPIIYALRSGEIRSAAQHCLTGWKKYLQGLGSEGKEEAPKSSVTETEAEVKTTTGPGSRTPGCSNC
Summary of the method: as §1

Chain of human CB1 receptor (hCB1) (P21554 whole entry): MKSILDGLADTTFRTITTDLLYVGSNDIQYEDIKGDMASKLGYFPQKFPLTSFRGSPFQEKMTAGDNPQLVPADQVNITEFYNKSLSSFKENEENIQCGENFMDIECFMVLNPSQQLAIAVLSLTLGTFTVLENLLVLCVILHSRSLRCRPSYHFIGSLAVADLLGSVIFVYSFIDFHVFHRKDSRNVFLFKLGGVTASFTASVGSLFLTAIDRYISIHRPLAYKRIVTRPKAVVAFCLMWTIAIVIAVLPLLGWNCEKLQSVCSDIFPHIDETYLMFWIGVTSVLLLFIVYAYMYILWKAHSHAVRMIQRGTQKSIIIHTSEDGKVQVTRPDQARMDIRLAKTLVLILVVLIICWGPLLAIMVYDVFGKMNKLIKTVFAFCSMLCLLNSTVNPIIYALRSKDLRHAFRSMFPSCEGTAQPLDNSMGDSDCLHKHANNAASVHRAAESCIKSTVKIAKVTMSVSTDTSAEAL

SMILES | EC50 [1] [µM] | EC50 (rat CB2 receptor (rCB2)) [µM] | +/− RCB2 (rat CB2 receptor (rCB2)) | +/− HCB1 [1]
C[C@H](NC(=O)c1nc(-c2ccccc2)n2c1CNCC2)C(C)(C)C [Compound 27, (s)-N-(3,3-dimethylbutan-2-yl)-3-phenyl-5,6,7,8-tetrahydroimidazo[1,5-a]pyrazine-1-carboxamide] | > 10 | > 10 |  | 
CNC(=O)[C@@H](NC(=O)c1nc(-c2ccc3c(c2)OCO3)n2c1CN(C)CCC2)C(C)(C)C [Compound 341, (S)-3-(benzo[d][1,3]dioxol-5-yl)-N-(3,3-dimethyl-1-(methylamino)-1-oxobutan-2-yl)-8-methyl-6,7,8,9-tetrahydro-5H-imidazo[1,5-a][1,4]diazepine-1-carboxamide] | > 10 |  | − | 
CNC(=O)[C@@H](NC(=O)c1nc(-c2cc(F)ccc2F)n2c1CN(C)CC2)C(C)(C)C [Compound 250, (S)-3-(2,5-difluorophenyl)-N-(3,3-dimethyl-1-(methylamino)-1-oxobutan-2-yl)-7-methyl-5,6,7,8-tetrahydroimidazo[1,5-a]pyrazine-1-carboxamide] | > 10 | > 10 |  | 
CN1CCCn2c(-c3cc(Cl)ccc3F)nc(C(=O)N[C@@H](CC(C)(C)C)C(N)=O)c2C1 [Compound 585, (S)-N-(1-amino-4,4-dimethyl-1-oxopentan-2-yl)-3-(5-chloro-2-fluorophenyl)-8-methyl-6,7,8,9-tetrahydro-5H-imidazo[1,5-a][1,4]diazepine-1-carboxamide] |  |  | + | +
CN1CCCn2c(-c3cc(F)ccc3F)nc(C(=O)N[C@H](C(N)=O)C(C)(C)C)c2C1 [Compound 575, (S)-N-(1-amino-3,3-dimethyl-1-oxobutan-2-yl)-3-(2,5-difluorophenyl)-8-methyl-6,7,8,9-tetrahydro-5H-imidazo[1,5-a][1,4]diazepine-1-carboxamide] |  |  | + | +
CC(=O)N1CCn2c(-c3ccccc3)nc(C(=O)N[C@@H](C)c3ccccc3)c2C1 [Compound 172, (S)-7-acetyl-3-phenyl-N-(1-phenylethyl)-5,6,7,8-tetrahydroimidazo[1,5-a]pyrazine-1-carboxamide] | > 10 |  | + | 
CC(C)CN1CCn2c(-c3ccccc3)nc(C(=O)Nc3ccccc3)c2C1 [Compound 150, 7-isobutyl-N,3-diphenyl-5,6,7,8-tetrahydroimidazo[1,5-a]pyrazine-1-carboxamide] | > 10 |  | − | 
CNC(=O)[C@@H](NC(=O)c1nc(-c2cccc3cccnc23)n2c1CN(C)CC2)C(C)(C)C [Compound 242, (S)-N-(3,3-dimethyl-1-(methylamino)-1-oxobutan-2-yl)-7-methyl-3-(quinolin-8-yl)-5,6,7,8-tetrahydroimidazo[1,5-a]pyrazine-1-carboxamide] | > 10 |  | − | 
CN1CCn2c(-c3ccccc3)nc(C(=O)N[C@H](C(=O)N(C)C)C(C)(C)C)c2C1 [Compound 79, (S)-N-(1-(dimethylamino)-3,3-dimethyl-1-oxobutan-2-yl)-7-methyl-3-phenyl-5,6,7,8-tetrahydroimidazo[1,5-a]pyrazine-1-carboxamide] | > 10 |  | − | 
CNC(=O)[C@@H](NC(=O)c1nc(/C=C/CN2CCCC2)n2c1CN(C)CC2)C(C)(C)C [Compound 288, (S,E)-N-(3,3-dimethyl-1-(methylamino)-1-oxobutan-2-yl)-7-methyl-3-(3-(pyrrolidin-1-yl)prop-1-enyl)-5,6,7,8-tetrahydroimidazo[1,5-a]pyrazine-1-carboxamide] | > 10 |  | − | 
CN1CCCn2c(-c3cc(Cl)ccc3F)nc(C(=O)N[C@H](C(N)=O)C(C)(C)C)c2C1 [Compound 574, (S)-N-(1-amino-3,3-dimethyl-1-oxobutan-2-yl)-3-(5-chloro-2-fluorophenyl)-8-methyl-6,7,8,9-tetrahydro-5H-imidazo[1,5-a][1,4]diazepine-1-carboxamide] |  |  | + | +
CNC(=O)[C@@H](NC(=O)c1nc(-c2ccccn2)n2c1CN(C)CCC2)C(C)(C)C [Compound 395, (S)-N-(3,3-dimethyl-1-(methylamino)-1-oxobutan-2-yl)-8-methyl-3-(pyridin-2-yl)-6,7,8,9-tetrahydro-5H-imidazo[1,5-a][1,4]diazepine-1-carboxamide] | > 10 |  | + | 
CCC(CO)NC(=O)c1nc(-c2ccccc2)n2c1CN(C)CC2 (centres unmarked) [Compound 232, N-(1-hydroxybutan-2-yl)-7-methyl-3-phenyl-5,6,7,8-tetrahydroimidazo[1,5-a]pyrazine-1-carboxamide] | > 10 | > 10 |  | 
CCC/C=C/c1nc(C(=O)N[C@H](C(=O)NC)C(C)(C)C)c2n1CCN(C)C2 [Compound 268, (S,E)-N-(3,3-dimethyl-1-(methylamino)-1-oxobutan-2-yl)-7-methyl-3-(pent-1-enyl)-5,6,7,8-tetrahydroimidazo[1,5-a]pyrazine-1-carboxamide] |  | > 10 |  | +
Cc1noc([C@@H](NC(=O)c2nc(-c3ccccc3)n3c2CN(C(C)C)CC3)C(C)(C)C)n1 [Compound 89, (S)-N-(2,2-dimethyl-1-(3-methyl-1,2,4-oxadiazol-5-yl)propyl)-7-isopropyl-3-phenyl-5,6,7,8-tetrahydroimidazo[1,5-a]pyrazine-1-carboxamide] | > 10 |  | − | 
CNC(=O)[C@@H](NC(=O)c1nc(/C=C/CN2CCCCC2)n2c1CN(C)CC2)C(C)(C)C [Compound 287, (S,E)-N-(3,3-dimethyl-1-(methylamino)-1-oxobutan-2-yl)-7-methyl-3-(3-(piperidin-1-yl)prop-1-enyl)-5,6,7,8-tetrahydroimidazo[1,5-a]pyrazine-1-carboxamide] | > 10 |  | + | 
CNC(=O)[C@@H](NC(=O)c1nc(-c2cccnc2)n2c1CN(C)CCC2)C(C)(C)C [Compound 348, (S)-N-(3,3-dimethyl-1-(methylamino)-1-oxobutan-2-yl)-8-methyl-3-(pyridin-3-yl)-6,7,8,9-tetrahydro-5H-imidazo[1,5-a][1,4]diazepine-1-carboxamide] | > 10 |  | + | 
CNC(=O)[C@@H](NC(=O)c1nc(C2=CCC(C(C)(C)C)CC2)n2c1CN(C)CC2)C(C)(C)C (stereo partly drawn) [Compound 271, 3-(4-tert-butylcyclohex-1-enyl)-N-((S)-3,3-dimethyl-1-(methylamino)-1-oxobutan-2-yl)-7-methyl-5,6,7,8-tetrahydroimidazo[1,5-a]pyrazine-1-carboxamide] |  |  | + | +
CNC(=O)[C@@H](NC(=O)c1nc(-c2cscc2C)n2c1CNCC2)C(C)(C)C [Compound 21, (S)-N-(3,3-dimethyl-1-(methylamino)-1-oxobutan-2-yl)-3-(4-methylthiophen-3-yl)-5,6,7,8-tetrahydroimidazo[1,5-a]pyrazine-1-carboxamide] | > 10 |  | + | 
CC(C)CN1CCn2c(-c3ccccc3)nc(C(=O)N[C@H](C)C(C)(C)C)c2C1 [Compound 52, (R)-N-(3,3-dimethylbutan-2-yl)-7-isobutyl-3-phenyl-5,6,7,8-tetrahydroimidazo[1,5-a]pyrazine-1-carboxamide] | > 10 |  | − | 
CNC(=O)[C@@H](NC(=O)c1nc(-c2ccc(F)c(C)c2)n2c1CN(C)CCC2)C(C)(C)C [Compound 347, (S)-N-(3,3-dimethyl-1-(methylamino)-1-oxobutan-2-yl)-3-(4-fluoro-3-methylphenyl)-8-methyl-6,7,8,9-tetrahydro-5H-imidazo[1,5-a][1,4]diazepine-1-carboxamide] | > 10 | > 10 |  | 
CNC(=O)[C@@H](NC(=O)c1nc(-c2cc(F)cc(C(N)=O)c2)n2c1CN(C)CCC2)C(C)(C)C [Compound 416, (S)-3-(3-carbamoyl-5-fluorophenyl)-N-(3,3-dimethyl-1-(methylamino)-1-oxobutan-2-yl)-8-methyl-6,7,8,9-tetrahydro-5H-imidazo[1,5-a][1,4]diazepine-1-carboxamide] | > 10 |  | + | 
CC(C)(C)OC(=O)N1CCn2c(-c3ccccc3)nc(C(=O)NC3C4(C)CCC(C4)C3(C)C)c2C1 (centres unmarked) [Compound 30, tert-butyl 3-phenyl-1-(1,3,3-trimethylbicyclo[2.2.1]heptan-2-ylcarbamoyl)-5,6-dihydroimidazo[1,5-a]pyrazine-7(8H)-carboxylate] | > 10 |  | − | 
CNC(=O)[C@H](CC(C)C)NC(=O)c1nc(-c2ccc(F)c(Cl)c2)n2c1CN(C)CCC2 [Compound 537, (S)-3-(3-chloro-4-fluorophenyl)-8-methyl-N-(4-methyl-1-(methylamino)-1-oxopentan-2-yl)-6,7,8,9-tetrahydro-5H-imidazo[1,5-a][1,4]diazepine-1-carboxamide] | > 10 |  | + | 
CNC(=O)[C@@H](NC(=O)c1nc(-c2cccnc2)n2c1CNCC2)C(C)(C)C [Compound 14, (S)-N-(3,3-dimethyl-1-(methylamino)-1-oxobutan-2-yl)-3-(pyridin-3-yl)-5,6,7,8-tetrahydroimidazo[1,5-a]pyrazine-1-carboxamide] | > 10 |  | + | 
